Test results taken from patent US8017348B1, “Assay for Parkinson's Disease therapeutics” (Elan Pharma International Limited, priority 2005, dated 2011).
pIC50: −log10 of the molar value. Read-outs that look alike come from different tables or passages of the source.

How the values were obtained:
HEK293 cells = assay: Cytotoxicity (cell count) in HEK293 cells; settings: for cytotoxicity: HEK293 cells
Source text: In terms of charactering cytotoxicity, compounds were given a low rating if the cell count was >75% of control levels, a medium rating if the cell count was between 50 and 75% of control wells, and a high rating if the cell count was less than 50% of control levels.

CFTR = assay: GFPu assay selectivity screen, cells transfected with CFTR; type: cell-based; settings: 10 uM to about 78 nM
Source text: (§1) The first is the RING finger ligase NRDP1 as a molecule structurally and functionally similar to Parkin. The second is the Cystic Fibrosis Transmembrane Conductance Regulator (CFTR) as a molecule that is a twelve-pass membrane channel protein, and structurally not related to Parkin.
(§2) Dose response curves were generated by exposing cells to compounds at various concentrations. […] “Hill” refers to the Hill Slope.

NRDP1 = assay: GFPu assay selectivity screen, cells transfected with NRDP1; type: cell-based; settings: for pIC50: GFPu assay, NRDP1 transfected cells, 10 uM to about 78 nM, read-out: NRDP IC50
Source text: as §1, §2

Parkin = assay: GFPu assay in HEK293 cells transfected with wild type Parkin (aggresome formation / proteasome function); type: cell-based, human; settings: for aggresome formation (qualitative, GFPu screen): LOPAC screen hits
Procedure: A summary of the finalized automation scheme is outlined in FIG. 12. Briefly, cells were manually transfected with Parkin using the Fugene Reagent (Roche) and then incubated for three hours at 37° C. […] Compounds were then added to the cell plate at a final concentration of 10 uM using the Multimek™ Automated Pipettor. Compounds were incubated with cells for 45 hours at 37° C. and then the media was gently aspirated with the Multimek. A mixture of 1 ug/ml Hoechst dye and 4% paraformaldehyde were then added to the cells for 40 minutes at room temperature using the Titertek Multidrop™ Lab System. Cell plates were subsequently washed using the Tecan PowerWasher and then read on the Cellomcis ArrayScan. A detailed protocol outlining this process step by step is shown in Example 8.
This example describes a protocol for the GFPu Assay in 96-well format. It will be appreciated that the protocol can be readily modified for other multi-well formats and that certain parameters can vary. […] Dose-response curves are generated using methods known in the art. Typically, serial 2-fold or 3-fold dilutions (usually in the range 10 uM to 50 pM) are tested.
1) HEK293 cells stably expressing GFP are cultured in DMEM containing 10% FBS, glutamine 2 mM and G418 sulfate at 600 μg/ml.
2) HEK 293 cells are harvested using PBS containing 5 mM EDTA. 180 μl of HEK293 cells at 67,000 cells/ml are then plated onto Costar PDL coated plates (#3667). After seeding cells on the plate, we let them sit for 30 minutes at room temperature in the tissue culture hood before placing them back into the incubator. This treatment may help reduce edge effects and is optional.
3) Incubate the plate overnight at 37° C./5% CO2 in the incubator.
4) A typical transfection cocktail is created as follows: Mix 50 ml of serum free DMEM with 1.087 ml of Fugene and wait 5 minutes at room temperature. Next add 375 μg of Parkin DNA or control vector, gently mix and incubate 35-45 minutes at room temperature.
5) Add 20 μl of transfection cocktail to each well of the plate and place back in the incubator for three hours at 37° C.
6) Add 20 μl of compound to all relevant wells. Final in-well concentration for compound is 10 μM. The DMSO concentration final in-well is 0.2%. Compound plates are diluted using serum free DMEM.
7) Plates are then incubated for 45 hours at 37° C. and 5% CO2.
8) Aspirate media out of wells.
9) Add […] a mixture containing 1 μg/ml Hoechst dye and 4% paraformaldehyde in 0.1M NaPhosphate buffer for 40 minutes at room temperature.
10) Wash with PBS containing calcium and magnesium and leave 200 μl in well.
11) Read on the ArrayScan using the Target Activation Bioapplication. […]
as §2

3-PI-dependent kinase 1 = biological target: T1, 3-PI-dependent kinase 1 (Homo sapiens, UniProt O15530); settings: at higher concentrations (25-50 uM); cited from earlier work
T1 sequence (O15530 1-556): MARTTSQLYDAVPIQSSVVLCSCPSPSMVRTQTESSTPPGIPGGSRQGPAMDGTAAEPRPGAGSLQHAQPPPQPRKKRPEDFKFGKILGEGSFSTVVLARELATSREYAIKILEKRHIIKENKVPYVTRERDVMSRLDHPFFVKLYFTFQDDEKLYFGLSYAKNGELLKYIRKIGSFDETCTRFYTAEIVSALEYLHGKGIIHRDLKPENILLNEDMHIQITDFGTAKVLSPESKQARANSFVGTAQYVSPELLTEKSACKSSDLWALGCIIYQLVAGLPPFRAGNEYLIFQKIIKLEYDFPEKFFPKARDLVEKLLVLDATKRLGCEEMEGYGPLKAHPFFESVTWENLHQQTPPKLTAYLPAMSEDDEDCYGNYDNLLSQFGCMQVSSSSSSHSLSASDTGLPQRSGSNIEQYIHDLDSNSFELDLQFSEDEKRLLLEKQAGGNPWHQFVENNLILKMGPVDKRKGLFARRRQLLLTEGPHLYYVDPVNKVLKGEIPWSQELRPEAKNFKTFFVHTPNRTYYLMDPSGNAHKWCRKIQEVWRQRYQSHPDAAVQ

aldehyde dehydrogenase = settings: at higher concentrations (25-50 uM); cited from earlier work
[1] = test system: cAMP dependent protein kinase; settings: at higher concentrations (25-50 uM); cited from earlier work
aggresome formation = settings: Johnston et al., 1998; cited from earlier work
[2] = dose response, eight 2-fold dilutions 10 uM to about 78 nM
[3] = Homo sapiens, HEK293, GFPu assay, Parkin transfected cells, eight 2-fold dilutions 10 uM to about 78 nM, read-out: Parkin IC50
[4] = Parkin expressing HEK293 cells, read-out: IC50 in the GFPu assay
[5] = Homo sapiens, Parkin expressing HEK293 cells, read-out: IC50 in the GFPu assay

Structure (SMILES) | pIC50 (CFTR) | pIC50 (Parkin; [3]) | aggresome formation (qualitative, GFPu screen) (Parkin) | pIC50 (NRDP1) | TC50 (HEK293 cells; human) [µM] | pIC50 (Parkin; [5]) | other results
O=C(O)CCCc1ccc(N(CCCl)CCCl)cc1 [ELN29018, chlorambucil] | < 5.00 | 5.14 | decreased aggresome formation |  |  |  | cytotoxicity (HEK293 cells): did not exhibit much cytotoxicity; TC50 (HEK293 cells; [2]): >10; NRDP % @ 10 (NRDP1; @ 10): 32% @ 10
O=c1[nH]cc(F)c(=O)[nH]1 [ELN29019, 5-fluoruracil] | < 5.00 |  |  | 5.80 |  |  | TC50 (HEK293 cells): > 10 µM; pIC50 (Parkin; [4]): 5.05
COC(=O)Nc1nc2ccc(C(=O)c3cccs3)cc2[nH]1 [ELN475312, nocodazol] | < 5.00 | 5.97 | inhibitors of aggresome formation | < 5.00 | < 0.078 |  | 
Nc1ncn([C@@H]2O[C@H](CO)[C@@H](O)[C@H]2O)c(=O)n1 [ELN476201, 5-azacytidine] | < 5.00 | 5.27 |  | 5.24 | > 10 | 5.27 | 
O=C(N[C@@H](Cc1ccccc1)C(=O)CCl)OCc1ccccc1 [ELN476309, ZPCK] | 5.41 |  |  | 6.59 |  |  | TC50 (HEK293 cells): 10 µM; pIC50 (Parkin; GFPu assay, Parkin transfected cells, eight 2-fold dilutions 10 uM to about 78 nM, read-out: Parkin IC50): 5.39; pIC50 (Parkin; [4]): 5.39
COc1cc2c(c(OC)c1OC)-c1ccc(OC)c(=O)cc1[C@@H](NC(C)=O)CC2 [ELN476311, colchicine] |  |  | inhibitors of aggresome formation |  |  |  | TC50 (HEK293 cells; [2]): <0.078
N[C@@H](Cc1ccc(N(CCCl)CCCl)cc1)C(=O)O [ELN476469, melphalan] | < 5.00 | 5.22 | decreased aggresome formation | < 5.00 |  |  | cytotoxicity (HEK293 cells): did not exhibit much cytotoxicity; TC50 (HEK293 cells; [2]): >10
O=C1c2c(O)ccc(O)c2C(=O)c2c(NCCNCCO)ccc(NCCNCCO)c21 [ELN476491, mitoxantrone] | 5.80 | > 7.11 |  | 5.82 | 6.53 | > 7.11 | 
O=c1c(O)c(-c2cc(O)c(O)c(O)c2)oc2cc(O)cc(O)c12 [ELN476493, myricetin] | < 5.00 | < 5.00 |  | < 5.00 | > 10 |  | inhibition at 10 µM (Parkin; Homo sapiens, HEK293, at 10 μM, LOPAC screen): 59%; % inhibition upon dose-response curve follow-up (Parkin; dose-response curve follow-up, 40% inhibition threshold): < 40%
COC[C@H]1OC(=O)c2coc3c2[C@@]1(C)C1=C(C3=O)[C@@H]2CCC(=O)[C@@]2(C)C[C@H]1OC(C)=O [ELN476646, Wortmannin] | < 5.00 | 6.12 |  | < 5.00 | 1.9 | 6.12 | 
COc1cc([C@@H]2c3cc4c(cc3[C@H](O)[C@H]3COC(=O)[C@H]23)OCO4)cc(OC)c1OC [ELN476767, podophyllotoxin] | < 5.00 | > 7.11 | inhibitors of aggresome formation | < 5.00 |  | > 7.11 | TC50 (HEK293 cells; [2]): <0.078
CC(=O)O[C@H]1C(=O)[C@@]2(C)[C@H]([C@H](OC(=O)c3ccccc3)[C@]3(O)C[C@H](OC(=O)[C@H](O)[C@@H](NC(=O)c4ccccc4)c4ccccc4)C(C)=C1C3(C)C)[C@]1(OC(C)=O)CO[C@@H]1C[C@@H]2O [ELN476780, taxol] | < 5.00 | > 6.81 | inhibitors of aggresome formation | < 5.00 | < 0.078 | > 7.11 | 
CN(Cc1cnc2nc(N)nc(N)c2n1)c1ccc(C(=O)N[C@@H](CCC(=O)O)C(=O)O)cc1 [ELN476809, methotrexate] | < 5.00 | > 7.11 |  | 6.81 | > 10 | > 7.11 | 
Cc1ccc(S(=O)(=O)N[C@@H](Cc2ccccc2)C(=O)CCl)cc1 [ELN477056, TPCK] | < 5.00 |  |  | 5.26 |  |  | TC50 (HEK293 cells; [2]): >10; pIC50 (Parkin; [4]): 5.03
CC[C@]1(O)C[C@@H]2CN(CCc3c([nH]c4ccccc34)[C@@](C(=O)OC)(c3cc4c(cc3OC)N(C)[C@H]3[C@@](O)(C(=O)OC)[C@H](OC(C)=O)[C@]5(CC)C=CCN6CC[C@]43[C@@H]65)C2)C1 [ELN477062, vinblastine] | < 5.00 | > 7.11 | inhibitors of aggresome formation | < 5.00 | < 0.078 |  | 
CC[C@]1(O)C[C@H]2CN(CCc3c([nH]c4ccccc34)[C@@](C(=O)OC)(c3cc4c(cc3OC)N(C=O)[C@H]3[C@@](O)(C(=O)OC)[C@H](OC(C)=O)[C@]5(CC)C=CCN6CC[C@]43[C@@H]65)C2)C1 [ELN477063, vincristine] | < 5.00 | > 7.11 | inhibitors of aggresome formation | < 5.00 | < 0.078 |  | 
Cc1ccc(S(=O)(=O)N[C@@H](Cc2ccccc2)C(=O)CCl)cc1 [TPCK] |  |  |  |  |  |  | inhibition of 3-PI-dependent kinase 1 (3-PI-dependent kinase 1): inhibit; inhibition of aldehyde dehydrogenase (aldehyde dehydrogenase): inhibit; inhibition of cAMP dependent protein kinase [1]: inhibit
COc1cc2c(c(OC)c1OC)-c1ccc(OC)c(=O)cc1[C@@H](NC(C)=O)CC2 [colchicine] |  |  |  |  |  |  | aggresome formation (literature) (aggresome formation): completely abrogated aggresome formation
COC(=O)Nc1nc2ccc(C(=O)c3cccs3)cc2[nH]1 [nocodazol] |  |  |  |  |  |  | aggresome formation (literature) (aggresome formation): completely abrogated aggresome formation
CC[C@]1(O)C[C@@H]2CN(CCc3c([nH]c4ccccc34)[C@@](C(=O)OC)(c3cc4c(cc3OC)N(C)[C@H]3[C@@](O)(C(=O)OC)[C@H](OC(C)=O)[C@]5(CC)C=CCN6CC[C@]43[C@@H]65)C2)C1 [vinblastine] |  |  |  |  |  |  | aggresome formation (literature) (aggresome formation): completely abrogated aggresome formation
